Data: the NIST ThermoML archive (doi:10.1016/j.tca.2017.08.010)

Test: mn = molality of the nth substance listed, in mol/kg
Conditions: 101 kPa, Liquid, Optical method

binary diffusion coefficient (288.15 K, m1 = 0.023)	binary diffusion coefficient (288.15 K, m1 = 0.071)	binary diffusion coefficient (288.15 K, m1 = 0.119)	binary diffusion coefficient (293.15 K, m1 = 0.023)	binary diffusion coefficient (293.15 K, m1 = 0.071)	binary diffusion coefficient (293.15 K, m1 = 0.119)	binary diffusion coefficient (298.15 K, m1 = 0.023)	binary diffusion coefficient (298.15 K, m1 = 0.071)	binary diffusion coefficient (298.15 K, m1 = 0.119)	binary diffusion coefficient (303.15 K, m1 = 0.023)	binary diffusion coefficient (303.15 K, m1 = 0.071)	binary diffusion coefficient (303.15 K, m1 = 0.119)	binary diffusion coefficient (308.15 K, m1 = 0.023)	binary diffusion coefficient (308.15 K, m1 = 0.071)	binary diffusion coefficient (308.15 K, m1 = 0.119)	binary diffusion coefficient (313.15 K, m1 = 0.023)	binary diffusion coefficient (313.15 K, m1 = 0.071)	binary diffusion coefficient (313.15 K, m1 = 0.119)	binary diffusion coefficient (298.15 K, m1 = 0.342)	Compound
9.16e-10 m2/s	6.72e-10 m2/s	8.56e-10 m2/s	1.11e-09 m2/s	8.44e-10 m2/s	1.04e-09 m2/s	1.32e-09 m2/s	1.06e-09 m2/s	1.26e-09 m2/s	1.54e-09 m2/s	1.32e-09 m2/s	1.47e-09 m2/s	1.79e-09 m2/s	1.59e-09 m2/s	1.71e-09 m2/s	2.07e-09 m2/s	1.92e-09 m2/s	1.99e-09 m2/s		CN1c2ccccc2Sc2ccccc21 [10-methylphenothiazine] + COC(=O)OC
																		1.81e-09 m2/s	[Cl-].[K+] [potassium chloride] + O
